What all share (format): functional
Assay [1] relates to Staphylococcus aureus. The assay is described as follows: Antibacterial activity against Staphylococcus aureus MTCC 96 after 24 hr by agar disk diffusion test. For orientation: Agar diffusion results depend on both activity and mobility in agar.
The subject of assay [2] is Aspergillus niger. Put plainly: Antifungal activity against Aspergillus niger MTCC 282 after 48 hr. The following applies: MTCC 282, 48 h.
Assay [3] has as its system Salmonella typhi. The assay is described as follows: Antibacterial activity against Salmonella enterica subsp. enterica serovar Typhi MTCC 733 after 24 hr by agar disk diffusion test.
The subject of assay [4] is Shigella flexneri. Put plainly: Antibacterial activity against Shigella flexneri after 24 hr by agar disk diffusion test.
Assay [5] has as its system Candida albicans. Put plainly: Antifungal activity against Candida albicans MTCC 183 after 48 hr. The conditions noted are these: MTCC 183, 48 h.
In assay [6] the test system is Escherichia coli. The assay is described as follows: Antibacterial activity against Escherichia coli MTCC 739 after 24 hr by agar disk diffusion test.
The subject of assay [7] is Bacillus cereus. Put plainly: Antibacterial activity against Bacillus cereus MTCC 619 after 24 hr. The conditions noted are these: MTCC 619, 24 h.
For assay [8], the system named is Pseudomonas aeruginosa. The assay is described as follows: Antibacterial activity against Pseudomonas aeruginosa MTCC 741.
The test system of assay [9] is Candida albicans. The assay is described as follows: Antifungal activity against Candida albicans MTCC 183 after 24 hr by agar disk diffusion test.
For assay [10], the system named is Shigella flexneri. The assay is described as follows: Antibacterial activity against Shigella flexneri after 24 hr.
In assay [11] the test system is Bacillus cereus. Put plainly: Antibacterial activity against Bacillus cereus MTCC 619 after 24 hr by agar disk diffusion test.
For assay [12], the system named is Salmonella typhi. The assay is described as follows: Antibacterial activity against Salmonella enterica subsp. enterica serovar Typhi MTCC 733 after 24 hr. The following applies: MTCC 733, 24 h.
In assay [13] the test system is Escherichia coli. The assay is described as follows: Antibacterial activity against Escherichia coli MTCC 739 after 24 hr. The following applies: MTCC 739, 24 h.
For assay [14], the system named is Proteus vulgaris. Put plainly: Antibacterial activity against Proteus vulgaris MTCC 1771 after 24 hr by agar disk diffusion test.
In assay [15] the test system is Klebsiella pneumoniae. Put plainly: Antibacterial activity against Klebsiella pneumoniae MTCC 109 after 24 hr by agar disk diffusion test.
Assay [16] has as its system Pseudomonas aeruginosa. The assay is described as follows: Antibacterial activity against Pseudomonas aeruginosa MTCC 741 after 24 hr by agar disk diffusion test.
In assay [17] the test system is Staphylococcus aureus. Put plainly: Antibacterial activity against Staphylococcus aureus MTCC 96 after 24 hr. The conditions noted are these: MTCC 96, 24 h.
Assay [18] has as its system Aspergillus niger. The assay is described as follows: Antifungal activity against Aspergillus niger MTCC 282 after 24 hr by agar disk diffusion test.
The subject of assay [19] is Proteus vulgaris. The assay is described as follows: Antibacterial activity against Proteus vulgaris MTCC 1771 after 24 hr. The following applies: MTCC 1771, 24 h.
For assay [20], the system named is Klebsiella pneumoniae. The assay is described as follows: Antibacterial activity against Klebsiella pneumoniae MTCC 109 after 24 hr. The conditions noted are these: MTCC 109, 24 h.

SMILES strings stand for the structures. Converted amounts (≈) assume the structure as drawn.

Broadly, the MIC is the smallest concentration in the dilution series that meets the test's criterion for growth inhibition. Lower therefore signals inhibition by little substance.

Consider `O=c1oc2ccccc2cc1-c1nnc(Sc2nc(Oc3cccc4cccnc34)nc(N3CCN(c4ccccc4F)CC3)n2)o1`, for which the “inhibition zone (IZ)” value in the assay on Staphylococcus aureus [1] was 19 mm; with Salmonella typhi [3] it was 20 mm; in the assay with Shigella flexneri [4], 19 mm; in the assay with Escherichia coli [6] it was 23 mm; with Candida albicans [9], 19 mm; in the assay with Bacillus cereus [11] it was 20 mm. Besides, the “inhibition zone (IZ)” value with Proteus vulgaris [14] amounted to 22 mm; in the assay on Klebsiella pneumoniae [15], 20 mm; in the assay on Pseudomonas aeruginosa [16], 19 mm; with Aspergillus niger [18], 21 mm. Further, the MIC with Aspergillus niger [2] turned out to be 100 µg/mL (≈ 155 µM); in the assay with Candida albicans [5], 100 µg/mL (≈ 155 µM); in the assay with Bacillus cereus [7], 50 µg/mL (≈ 77.3 µM); in the assay on Pseudomonas aeruginosa [8], 100 µg/mL (≈ 155 µM); against Shigella flexneri [10], 100 µg/mL (≈ 155 µM); in the assay on Salmonella typhi [12], 50 µg/mL (≈ 77.3 µM). Besides, the MIC against Escherichia coli [13] is 25 µg/mL (≈ 38.7 µM); in the assay with Staphylococcus aureus [17], 100 µg/mL (≈ 155 µM); in the assay with Proteus vulgaris [19], 25 µg/mL (≈ 38.7 µM); against Klebsiella pneumoniae [20] it was 50 µg/mL (≈ 77.3 µM).
`O=c1oc2ccccc2cc1-c1nnc(Sc2nc(Oc3cccc4cccnc34)nc(N3CCN(c4ccc(F)cc4)CC3)n2)o1`: the “inhibition zone (IZ)” value in the assay on Staphylococcus aureus [1] was found to be 22 mm; with Salmonella typhi [3] it was 19 mm; in the assay with Shigella flexneri [4] it was 17 mm; in the assay on Escherichia coli [6] it was 23 mm; in the assay on Candida albicans [9] it was 22 mm; in the assay with Bacillus cereus [11] it was 21 mm. Moreover, the “inhibition zone (IZ)” value is 21 mm in the assay on Proteus vulgaris [14], 16 mm with Klebsiella pneumoniae [15], 21 mm with Pseudomonas aeruginosa [16] and 21 mm in the assay with Aspergillus niger [18]. The MIC turned out to be 100 µg/mL (≈ 155 µM) against Aspergillus niger [2]; 50 µg/mL (≈ 77.3 µM) against Candida albicans [5]; 50 µg/mL (≈ 77.3 µM) in the assay with Bacillus cereus [7]; 50 µg/mL (≈ 77.3 µM) in the assay with Pseudomonas aeruginosa [8]; 100 µg/mL (≈ 155 µM) in the assay with Shigella flexneri [10]; 100 µg/mL (≈ 155 µM) against Salmonella typhi [12]. The MIC with Escherichia coli [13] stood at 25 µg/mL (≈ 38.7 µM); against Staphylococcus aureus [17] it was 25 µg/mL (≈ 38.7 µM); against Proteus vulgaris [19], 50 µg/mL (≈ 77.3 µM); against Klebsiella pneumoniae [20], 100 µg/mL (≈ 155 µM).
With `O=c1oc2ccccc2cc1-c1nnc(Sc2nc(Oc3cccc4cccnc34)nc(N3CCN(c4cccc(C(F)(F)F)c4)CC3)n2)o1`, the “inhibition zone (IZ)” value in the assay on Staphylococcus aureus [1] is given as 24 mm; with Salmonella typhi [3], 21 mm; in the assay with Shigella flexneri [4], 21 mm; with Escherichia coli [6], 22 mm; in the assay on Candida albicans [9], 21 mm; in the assay on Bacillus cereus [11], 24 mm. Further, the “inhibition zone (IZ)” value in the assay on Proteus vulgaris [14] is given as 23 mm; with Klebsiella pneumoniae [15] it was 21 mm; in the assay on Pseudomonas aeruginosa [16] it was 21 mm; in the assay with Aspergillus niger [18], 24 mm. Moreover, the minimum inhibitory concentration (MIC) was determined as 25 µg/mL (≈ 35.9 µM) with Aspergillus niger [2]; 50 µg/mL (≈ 71.8 µM) with Candida albicans [5]; 12.5 µg/mL (≈ 17.9 µM) in the assay on Bacillus cereus [7]; 25 µg/mL (≈ 35.9 µM) with Pseudomonas aeruginosa [8]; 100 µg/mL (≈ 144 µM) against Shigella flexneri [10]; 50 µg/mL (≈ 71.8 µM) with Salmonella typhi [12]. The MIC with Escherichia coli [13] was 50 µg/mL (≈ 71.8 µM); against Staphylococcus aureus [17], 12.5 µg/mL (≈ 17.9 µM); in the assay with Proteus vulgaris [19] it was 25 µg/mL (≈ 35.9 µM); in the assay on Klebsiella pneumoniae [20] it was 25 µg/mL (≈ 35.9 µM).
As for `COc1ccc(CN2CCN(c3nc(Oc4cccc5cccnc45)nc(Sc4nnc(-c5cc6ccccc6oc5=O)o4)n3)CC2)c(OC)c1OC`, the “inhibition zone (IZ)” value with Staphylococcus aureus [1] is recorded as 23 mm; in the assay with Salmonella typhi [3], 24 mm; in the assay with Shigella flexneri [4], 23 mm; in the assay with Escherichia coli [6] it was 19 mm; in the assay on Candida albicans [9], 22 mm; in the assay with Bacillus cereus [11], 23 mm. For the same compound, the “inhibition zone (IZ)” value was 20 mm with Proteus vulgaris [14], 18 mm in the assay on Klebsiella pneumoniae [15], 22 mm with Pseudomonas aeruginosa [16] and 24 mm with Aspergillus niger [18]. Also, the MIC in the assay with Aspergillus niger [2] worked out at 25 µg/mL (≈ 34.1 µM); in the assay on Candida albicans [5] it was 50 µg/mL (≈ 68.2 µM); in the assay with Bacillus cereus [7] it was 12.5 µg/mL (≈ 17.1 µM); in the assay with Pseudomonas aeruginosa [8], 12.5 µg/mL (≈ 17.1 µM); against Shigella flexneri [10] it was 25 µg/mL (≈ 34.1 µM); against Salmonella typhi [12], 12.5 µg/mL (≈ 17.1 µM). For the same compound, the MIC against Escherichia coli [13] came to 100 µg/mL (≈ 136 µM); in the assay on Staphylococcus aureus [17], 12.5 µg/mL (≈ 17.1 µM); against Proteus vulgaris [19], 100 µg/mL (≈ 136 µM); in the assay on Klebsiella pneumoniae [20], 100 µg/mL (≈ 136 µM).
Regarding `COc1ccc(N2CCN(c3nc(Oc4cccc5cccnc45)nc(Sc4nnc(-c5cc6ccccc6oc5=O)o4)n3)CC2)cc1`, the “inhibition zone (IZ)” value is recorded as 22 mm in the assay on Staphylococcus aureus [1]; 24 mm in the assay with Salmonella typhi [3]; 22 mm in the assay with Shigella flexneri [4]; 17 mm in the assay with Escherichia coli [6]; 22 mm with Candida albicans [9]; 23 mm with Bacillus cereus [11]. Besides, the “inhibition zone (IZ)” value is reported as 18 mm with Proteus vulgaris [14], 19 mm in the assay with Klebsiella pneumoniae [15], 23 mm with Pseudomonas aeruginosa [16] and 24 mm in the assay with Aspergillus niger [18]. In addition, the MIC in the assay with Aspergillus niger [2] stood at 25 µg/mL (≈ 38 µM); against Candida albicans [5] it was 50 µg/mL (≈ 75.9 µM); against Bacillus cereus [7], 12.5 µg/mL (≈ 19 µM); with Pseudomonas aeruginosa [8], 12.5 µg/mL (≈ 19 µM); in the assay with Shigella flexneri [10] it was 50 µg/mL (≈ 75.9 µM); against Salmonella typhi [12] it was 12.5 µg/mL (≈ 19 µM). Besides, the MIC with Escherichia coli [13] was determined as 100 µg/mL (≈ 152 µM); with Staphylococcus aureus [17], 25 µg/mL (≈ 38 µM); with Proteus vulgaris [19] it was 100 µg/mL (≈ 152 µM); in the assay with Klebsiella pneumoniae [20] it was 100 µg/mL (≈ 152 µM).
